Laboratory results: the NIST ThermoML archive (doi:10.1021/je400243j)
Numbers after ± are expanded uncertainties.

Settings: 293.15 K, 101.33 kPa, Liquid; for viscosity: Concentric cylinders viscometry; for mass density: Vibrating tube method

Row | viscosity | mass density | SMILES
1 | 1000 ± 100 mPa·s | 1346.9 ± 0.8 kg/m3 | CCCCn1cc[n+](CCCS(=O)(=O)O)c1.O=S(=O)([O-])O [1-butyl-3-(3-sulfopropyl)-imidazolium hydrogensulfate]
2 | 1592 ± 210 mPa·s | 1361.1 ± 0.8 kg/m3 | CCCCn1cc[n+](CCCCS(=O)(=O)O)c1.O=S(=O)([O-])O [1-butyl-3-(4-sulfobutyl)-imidazolium hydrogensulfate]
3 | 1296 ± 150 mPa·s | 1501.7 ± 0.9 kg/m3 | C[n+]1ccn(CCCS(=O)(=O)O)c1.O=S(=O)([O-])O [1-methyl-3-(3-sulfopropyl)-imidazolium hydrogensulfate]
4 | 1427 ± 180 mPa·s | 1464.7 ± 0.8 kg/m3 | C[n+]1ccn(CCCCS(=O)(=O)O)c1.O=S(=O)([O-])O [1-methyl-3-(4-sulfobutyl)-imidazolium hydrogensulfate]
